# Tests used:
# HUVEC = HUVEC scratch assay; assay type: cell-based, human; conditions: 40 μM ManN in combination with 50 ng/ml VEGF
# Procedure: BCECs (passage 6-10) and HUVEC (passage 6-8) were used in this assay.
# Cells were grown until about 80% confluency in 6-well plates, washed twice with PBS and then starved in serum-free DMEM (low Glucose, Hyclone) for 5 hrs before making a “scratch” using 1 ml tip. Cell monolayers were briefly washed once with serum-free media, followed by various treatments in media containing 1% FBS. 48 hrs later, the assay was stopped by adding 2 ml 4% paraformaldehyde. 20 min later, fixed cells were stained with 1 ml Crystal Violet (Sigma). Plates were washed gently under the running tap water and air-dried before taking pictures. Images were acquired by ZEISS Discovery V8 SteREO microscopy equipped with PixeLINK Megapixel FireWire camera. Quantification of wound closure was done using AxioVision LE Rel.4.4 software. Six images were taken for each sample and six measurements (in pixel) were made on each image using AxioVision LE Re1.4.4 software.
# [1] = mouse, in vivo, po
# Procedure: Following oral administration, there was a relatively rapid decline in ManN plasma levels. Plasma free ManN levels reached a peak level of −100 nmol/ml plasma at 1 hr. […] 2 hours after oral feeding of 20% ManN, muscle samples were taken from the ischemic legs. A significant amount of ManN reached the ischemic legs, with 0.17+1−0.18 nmol/mg protein of free ManN and 0.91+1−0.24 nmol/mg protein of ManN-6p.
# To test ManN stability in wound fluid collected from mice with skin infection as described below, 1.5 μl of 5% ManN solution was added to each 200 μl wound fluid which was first diluted 1:1 (v/v) with PBS. At each time point, samples were taken from 37° C. incubator and stored at −80° C. Plasma proteins were precipitated by adding ice cold acetonitrile to plasma: acetonitrile 1:3 (v/v) ratio. Samples were kept over ice for 1 hr and then centrifuged at 12000 g for 10 min at 7° C. to form a pellet. Supernatants were transferred to other tubed, dried down on a Speed Vac and then reconstituted in UltraPure distilled water and filtered through pre-washed Nanosep 3K Omega filters (Pall Corporation). The filtrate was dried down on Speed Vac. The dry samples were dissolved in 100 μl of water and 2 μl plasma or wound fluid sample was subjected to HPLC analysis. Neutral and amino sugars were separated on a Dionex CarboPac PAI column 4 mm×250 mm with 4 mm×50 mm guard column. An isocratic gradient of 19 mM sodium hydroxide with 0.95 mM sodium acetate was used at a flow rate of 1 ml/min with 20 min run. Data was collected using the Dionex ICS-3000 HPLC system with pulsed amperometric detector using standard Quad waveform. ManN was identified and quantified by comparison with monosaccharide standard using Thermo Scientific Chromeleon software. No ManN samples served as negative controls.
# bFGFR 1 or β1 integrin = assay: Western blot of protein molecular mass in non-endothelial cells; assay type: cell-based; conditions: 400 μM and 2 mM
# Procedure: Cells were allowed to reach-80% confluency in 12-well plates. […] At various time points, plates were taken out of the incubator and kept on ice. Cell monolayers were first washed once with ice-cold PBS before lysis with 250 μI of Pierce RIPA buffer (ThermoFisher Scientific, Rockford, IL) or use 50 mM Tris-HCl (pH 7.6), 150 mM NaCl, 10% Glycerol, 1% NP-40 containing protease/Phosphatase inhibitor cocktail (100×) (Cell signaling, #5872). Lysates were collected and mixed with 4× Bolt LDS Sample Buffer (Novex, Carlsbad, CA) in the presence of Halt protease inhibitors and phosphatase inhibitor cocktail (ThermoFisher scientific, #NP0007). The samples were subjected to SDS-PAGE (Bolt 4-12% Bis-Tris Plus, Invitrogen) using Bolt MES SDS running buffer or NuPAGE 3-8% Tris-Acetate gel using Tris-Acetate SDS running buffer (Novex). HUVECs (passage 6-8) were plated in EBM-2 basal medium (Lonza) with 0.2% FBS. Following overnight culture, cells were serum-starved in EBM-2 medium for 4 hrs prior to treatment with 50 ng/ml of VEGF165 or vehicle controls for various lengths. Equal amounts of protein lysates were analyzed by SDS-PAGE and blotted with the indicated antibodies. Proteins were transferred using Tris-Glycine buffer with 20% Methanol (Proteonomics grade) (Apex BioResearch Products). […]
# human keratinocytes = assay: Human keratinocyte proliferation assay; assay type: cell-based
# Procedure: Proliferation assays with fibroblasts were done in low-glucose DMEM containing 1% FBS, with or without 10 ng/ml bFGF, or 100 ng/ml human EGF and the assay was ended at day 3. ARPE-19 cells were gently lifted with 0.025% trypsin and plated in RtEGM media (Clonetics) containing 2% FBS, L-glutamine, human bFGF and GA-1000. Once cells were attached to plates, serum-free RtEGM media was used to maintain the cultures. For proliferation assays, 1500 human RPE cells were plated into 96-well plates in low-glucose DMEM containing 1% FBS. A673, U87MG, Calu6 and AML12 cells were grown until confluent and were then harvested and re-suspended in appropriate assay media. For proliferation assays, cells were plated at the density of 1000-2000 cells/well in low-glucose DMEM containing 5% FBS or otherwise stated. Bovine pituitary cells (pituitary folliculostellate cells) were isolated as previously described. For proliferation assays with human epidermal keratinocytes, human DMVECs and human dermal fibroblast cells, 1000 cells/well were plated in low-glucose DMEM containing 1% FBS with or without various growth factors. The assay was ended at day 3 for bovine pituitary cells and at day 4 for all the other cell types. […] Four days later, tumor cell growth was measured by the MTS assay (Promega, Madison, WI), a colorimetric assay that measures metabolic activity of viable cells. […]
smiles,measurement,setting,value
"N[C@H](C=O)[C@@H](O)[C@H](O)[C@H](O)CO [ManN, 2-Amino-2-deoxy-D-mannose]",HUVEC wound closure,HUVEC,stimulation of migration and wound closure
same,plasma ManN after 3 hours relative to peak,[1],about half of that amount
same,plasma free ManN peak level,[1],~100 nmol/ml plasma
same,time of plasma peak level,[1],1 h
same,ManN-6p in ischemic leg muscle,[1]; 2 h,0.91+1−0.24 nmol/mg protein
same,free ManN in ischemic leg muscle,[1]; 2 h,0.17+1−0.18 nmol/mg protein
same,molecular mass change of bFGFR 1 or β1 integrin in non-ECs,bFGFR 1 or β1 integrin,could induce molecular mass change
same,sensitivity of human keratinocytes to ManN toxicity,human keratinocytes; 5 mM level of ManN,least sensitive ones
same,proliferation of human keratinocytes,human keratinocytes; alone or in combination with growth factors,no increases in proliferation

# — patent US20250275993A1, “GLYCOSYLATION INHIBITORS AS THERAPEUTICS FOR STROKE” (The Regents of the University of California, priority 2022, published 2025)
